{"source": "BindingDB's records for doi:10.1021/jm00069a017", "about": "(University of Minnesota, 1993)", "key": {"[1]": {"assay": "Selective binding affinity against Opioid receptor delta 2, using [3H]DSLET as radioligand"}, "[2]": {"assay": "Selective binding affinity against Opioid receptor delta 1, using [3H]DPDPE as radioligand"}}, "data": [{"smiles": "CN1CC[C@]23c4c5ccc(O)c4O[C@H]2C(=O)C2(Cc4ccccc4C2)C[C@@]3(O)[C@H]1C5", "note": "[Spiroindanyloxymorphone]", "values": [{"measurement": "Ki", "setting": "[1]", "value": 3.3, "unit": "nM"}, {"measurement": "Ki", "setting": "[2]", "value": 1.4, "unit": "nM"}]}]}
